Assay results reported in US10206397B2, “N-acylimino heterocyclic compounds” (BASF SE, priority 2013, dated 2019).

Legend:
Format in all cases: in vivo
[1] = system: Orchid Thrips (dichromothrips corbetti); experiment: Orchid thrips floral-immersion test; details: 72 h, read-out: mortality in comparison with untreated controls
Method: B.6 Orchid Thrips (dichromothrips corbetti)
Dichromothrips corbetti adults used for bioassay are obtained from a colony maintained continuously under laboratory conditions. For testing purposes, the test compound is diluted in a 1:1 mixture of acetone:water (vol:vol), plus 0.01% vol/vol Alkamuls® EL 620 surfactant.
Thrips potency of each compound is evaluated by using a floral-immersion technique. Plastic petri dishes are used as test arenas. All petals of individual, intact orchid flowers are dipped into treatment solution and allowed to dry. Treated flowers are placed into individual petri dishes along with about 20 adult thrips. The petri dishes are then covered with lids. All test arenas are held under continuous light and a temperature of about 28° C. for duration of the assay. After 3 days, the numbers of live thrips are counted on each flower, and along inner walls of each petri dish. The percent mortality is recorded 72 hours after treatment.

[2] = system: green peach aphid (Myzus persicae); experiment: Green peach aphid systemic test, artificial diet in 96-well microtiter plates; details: 72 h, read-out: mortality in comparison with untreated controls
Source text: B.1 Green Peach Aphid (Myzus persicae)
For evaluating control of green peach aphid (Myzus persicae) through systemic means, the test unit consists of 96-well-microtiter plates containing liquid artificial diet under an artificial membrane.
The compounds are formulated using a solution containing 75% v/v water and 25% v/v DMSO. Different concentrations of formulated compounds are pipetted into the aphid diet, using a custom built pipetter, at two replications.
After application, 5-8 adult aphids are placed on the artificial membrane inside the microtiter plate wells. The aphids are then allowed to suck on the treated aphid diet and incubated at about 23+1° C. and about 50+5% relative humidity for 3 days. Aphid mortality and fecundity is then visually assessed.

[3] = system: vetch aphid (Megoura viciae); experiment: Vetch aphid contact/systemic test on broad bean leaf disks; details: foliar, 120 h, read-out: mortality in comparison with untreated controls
Method: B.2 Vetch Aphid (Megoura viciae)
For evaluating control of vetch aphid (Megoura viciae) through contact or systemic means the test unit consisted of 24-well-microtiter plates containing broad bean leaf disks.
The compounds were formulated using a solution containing 75% v/v water and 25% v/v DMSO. Different concentrations of formulated compounds were sprayed onto the leaf disks at 2.5 μl, using a custom built micro atomizer, at two replications.
After application, the leaf disks were air-dried and 5-8 adult aphids were placed on the leaf disks inside the microtiter plate wells. The aphids were then allowed to suck on the treated leaf disks and were incubated at about 23±1° C. and about 50±5% relative humidity for 5 days. Aphid mortality and fecundity was then visually assessed.

[4] = system: Cowpea Aphid (Aphis craccivora); experiment: Cowpea aphid spray test on potted cowpea plants; details: 72 h, read-out: mortality in comparison with untreated controls
Method: B.4 Cowpea Aphid (Aphis craccivora)
(§1) The active compound is dissolved at the desired concentration in a mixture of 1:1 (vol:vol) distilled water:acetone. Surfactant (Alkamuls® EL 620) is added at a rate of 0.1% (vol/vol). The test solution is prepared at the day of use.
Potted cowpea plants are colonized with approximately 50-100 aphids of various stages by manually transferring a leaf tissue cut from infested plant 24 hours before application. Plants are sprayed after the pest population has been recorded. Treated plants are maintained on light carts at about 28° C. Percent mortality is assessed after 72 hours.

[5] = system: Cotton aphid (Aphis gossypii); experiment: Cotton aphid spray test on potted plants; details: 72 h, read-out: mortality in comparison with untreated controls
Method: B.3 Cotton aphid (Aphis gossypii)
as §1
Potted cowpea plants were colonized with approximately 50-100 aphids of various stages by manually transferring a leaf tissue cut from infested plant 24 hours before application. Plants were sprayed after the pest population has been recorded. Treated plants are maintained on light carts at about 28° C. Percent mortality was assessed after 72 hours.

[6] = system: Rice Green Leafhopper (Nephotettix virescens); experiment: Rice green leafhopper spray test on rice seedlings; details: 72 h, read-out: mortality in comparison with untreated controls
Method: B.7 Rice Green Leafhopper (Nephotettix virescens)
(§2) Rice seedlings are cleaned and washed 24 hours before spraying. The active compounds are formulated in 50:50 acetone:water (vol:vol), and 0.1% vol/vol surfactant (EL 620) is added. Potted rice seedlings are sprayed with 5 ml test solution, air dried, placed in cages and inoculated with 10 adults. Treated rice plants are kept at about 28-29° C. and relative humidity of about 50-60%. Percent mortality is recorded after 72 hours.

[7] = system: Silverleaf Whitefly (bemisia argentifolii); experiment: Silverleaf whitefly spray test on cotton plants; details: 72 h, read-out: mortality in comparison with untreated controls
Source text: B.5 Silverleaf Whitefly (bemisia argentifolii)
The active compounds are formulated in cyclohexanone as a 10,000 ppm solution supplied in tubes. The tubes are inserted into an automated electrostatic sprayer equipped with an atomizing nozzle and they serve as stock solutions for which lower dilutions are made in 50% acetone:50% water (v/v). A nonionic surfactant (Kinetic®) is included in the solution at a volume of 0.01% (v/v).
Cotton plants at the cotyledon stage (one plant per pot) are sprayed by an automated electrostatic plant sprayer equipped with an atomizing spray nozzle. The plants are dried in the sprayer fume hood and then removed from the sprayer. Each pot is placed into a plastic cup and about 10 to 12 whitefly adults (approximately 3-5 days old) are introduced. The insects are collected using an aspirator and a nontoxic Tygon® tubing connected to a barrier pipette tip. The tip, containing the collected insects, is then gently inserted into the soil containing the treated plant, allowing insects to crawl out of the tip to reach the foliage for feeding. Cups are covered with a reusable screened lid. […] Mortality is assessed 3 days after treatment, compared to untreated control plants.

[8] = system: Green Soldier Stink Bug (Nezara viridula); experiment: Green soldier stink bug spray test on soybean pods; details: 120 h, sprayed soybean pods, 3rd instar, 5 days, read-out: mortality in comparison with untreated controls
Method: B.10 Green Soldier Stink Bug (Nezara viridula)
The active compound is dissolved at the desired concentration in a mixture of 1:1 (vol:vol) distilled water:aceteone. Surfactant (Kinetic HV) is added at a rate of 0.01% (vol/vol). The test solution is prepared at the day of use.
Soybean pods were placed in microwavable plastic cups lined with moist filter paper and inoculated with ten 3rd instar N. viridula. Using a hand atomizer, approximately 2 ml solution is sprayed into each cup. Treated cups were kept at about 28-29° C. and relative humidity of about 50-60%. Percent mortality was recorded after 5 days.

[9] = system: Rice Brown Plant Hopper (Nilaparvata lugens); experiment: Rice brown plant hopper spray test on rice seedlings; details: 72 h, read-out: mortality in comparison with untreated controls
Method: B.8 Rice Brown Plant Hopper (Nilaparvata lugens)
as §2, with “compounds is” for “compounds are”, “acetone:water (vol:vol)” for “acetone:water (vol:vol),”, “620) was” for “620) is”

[10] = system: Diamond Back Moth (Plutella xylostella); experiment: Diamond back moth cabbage leaf dip test; details: foliar, 72 h, read-out: mortality in comparison with untreated controls
Method: B.9 Diamond Back Moth (Plutella xylostella)
The active compound is dissolved at the desired concentration in a mixture of 1:1 (vol:vol) distilled water:aceteone. Surfactant (Alkamuls® EL 620) is added at a rate of 0.1% (vol/vol). The test solution is prepared at the day of use.
Leaves of cabbage were dipped in test solution and air-dried. Treated leaves were placed in petri dish eslined with moist filter paper and inoculated with ten 3rd instar larvae. Mortality was recorded 72 hours after treatment. Feeding damages were also recorded using a scale of 0-100%.

SMILES | mortality at 500 ppm [1] [%] | mortality at 2500 ppm [2] [%] | mortality at 2500 ppm [3] [%] | mortality at 500 ppm [4] [%] | mortality at 500 ppm [5] [%] | mortality at 500 ppm [6] [%] | mortality at 500 ppm [7] [%] | mortality at 500 ppm [8] [%] | mortality at 500 ppm [9] [%] | mortality at 500 ppm [10] [%]
N#CCC(=O)/N=c1\ccccn1Cc1ccc(Cl)nc1 [I.A-1] | ≥ 75 | ≥ 75 | ≥ 75 | ≥ 75 | > 75 | ≥ 75 | ≥ 75 | > 75 | ≥ 75 | –
N#CC1(C(=O)/N=c2\ccccn2Cc2ccc(Cl)nc2)CC1 [I.B-1] | ≥ 75 | ≥ 75 | ≥ 75 | ≥ 75 | – | ≥ 75 | – | – | ≥ 75 | > 75
